{
  "source": "paper PMC2748101",
  "about": "“Transcriptome analysis of the responses of Staphylococcus aureus to antimicrobial peptides and characterization of the roles of vraDE and vraSR in antimicrobial resistance” (BMC Genomics, 2009)",
  "key": {"[1]": {"system": "S. aureus Newman", "type": "cell-based, Staphylococcus aureus"}, "[2]": {"system": "S. aureus Newman", "details": "S. aureus Newman; Mueller-Hinton broth, 16-24 h, 37°C, two-fold dilution series, performed twice"}, "[3]": {"system": "S. aureus RN4220", "details": "Mueller-Hinton broth, 16-24 h, 37°C, two-fold dilution series, performed twice"}, "[4]": {"system": "ΔvraSR/S. aureus Newman", "details": "for MIC: ΔvraSR/S. aureus Newman, 16-24 h, 37°C, two-fold dilution series, performed twice; for Effect of the ΔvraSR mutation on sensitivity: MIC, 100%, 50% (LL-37, nisin, Pep5) or 25% (hBD3) Mueller-Hinton broth"}, "[5]": {"system": "ΔvraSR/ RN4220", "details": "Mueller-Hinton broth, 16-24 h, 37°C, two-fold dilution series, performed twice"}, "[6]": {"system": "ΔvraDE/ RN4220", "details": "Mueller-Hinton broth, 16-24 h, 37°C, two-fold dilution series, performed twice"}, "[7]": {"system": "ΔvraDE/S. aureus Newman", "details": "ΔvraDE/S. aureus Newman; Mueller-Hinton broth, 16-24 h, 37°C, two-fold dilution series, performed twice"}, "[8]": {"system": "S. aureus Newman", "experiment": "qRT-PCR of gene induction in treated wild-type cells", "type": "cell-based, Staphylococcus aureus", "details": "10 min, 5 × MIC (temporin-L-NH2 subinhibitory 2 μg/ml, pentaglycine 20 μg/ml), treated/untreated, mean of three experiments (SD)"}},
  "note": "Where “and” joins values, the source holds several entries; their conditions need not be identical. Equal values may be shown once. Where no end group is shown, it is not given here.",
  "data": [
    {"substance": "ALWKTLLKKVLKAAAK-NH2 [Dermaseptin K4-S4(1-16)-NH2]", "values": [
      {"measurement": "Number of genes with decreased expression", "setting": "[1]", "result": 134, "unit": "genes"},
      {"measurement": "Fold induction SA0336", "setting": "[1]; n=3", "result": "2.2, 2.1, 2.1 fold"},
      {"measurement": "Fold induction SA0342", "setting": "[1]; n=3", "result": "2.2, 2.2 fold"},
      {"measurement": "Fold induction SA0358", "setting": "[1]; n=3", "result": "2.4, 2.4 fold"},
      {"measurement": "Fold induction SA0428", "setting": "[1]; n=3", "result": "2.3 fold and 3.6, 2.4, 2.3 fold"},
      {"measurement": "Fold induction SA0526", "setting": "[1]; n=3", "result": "2.2, 2.0 fold"},
      {"measurement": "Fold induction SA0591", "setting": "[1]; n=3", "result": "2.1 fold and 3.0, 3.3, 2.1 fold"},
      {"measurement": "Fold induction SA0825 (spsA)", "setting": "[1]; n=3", "result": "2.0 fold and 2.6, 3.5, 2.0 fold"},
      {"measurement": "Fold induction SA0826 (spsB)", "setting": "[1]; n=3", "result": "2.1, 2.7, 2.0 fold"},
      {"measurement": "Fold induction SA0903", "setting": "[1]; n=3", "result": "2.6 fold and 2.1, 4.1, 2.6 fold"},
      {"measurement": "Fold induction SA0914", "setting": "[1]; n=3", "result": "2.3, 2.5, 2.0 fold"},
      {"measurement": "Fold induction SA0962", "setting": "[1]; n=3", "result": "2.4, 2.8, 2.4 fold"},
      {"measurement": "Fold induction SA1184 (citB)", "setting": "[1]; n=3", "result": "2.5, 2.4, 2.0 fold"},
      {"measurement": "Fold induction SA1217", "setting": "[1]; n=3", "result": "3.0, 2.4 fold"},
      {"measurement": "Fold induction SA1218 (pstB)", "setting": "[1]; n=3", "result": 2.9, "unit": "fold"},
      {"measurement": "Fold induction SA1219", "setting": "[1]; n=3", "result": "4.2 fold and 5.4, 4.2 fold"},
      {"measurement": "Fold induction SA1220", "setting": "[1]; n=3", "result": "2.3, 2.1 fold"},
      {"measurement": "Fold induction SA1221", "setting": "[1]; n=3", "result": "3.1, 2.8 fold"},
      {"measurement": "Fold induction SA1235", "setting": "[1]; n=3", "result": "2.4, 2.1, 2.6 fold"},
      {"measurement": "Fold induction SA1476", "setting": "[1]; n=3", "result": "3.3 fold and 4.2, 5.3, 3.3 fold"},
      {"measurement": "Fold induction SA1477", "setting": "[1]; n=3", "result": "5.5, 6.8, 3.8 fold"},
      {"measurement": "Fold induction SA1517 (citC)", "setting": "[1]; n=3", "result": "3.1 fold and 4.9, 5.8, 3.1 fold"},
      {"measurement": "Fold induction SA1518 (citZ)", "setting": "[1]; n=3", "result": "6.0, 6.7, 3.6 fold"},
      {"measurement": "Fold induction SA1549 (htrA)", "setting": "[1]; n=3", "result": "2.0 fold and 2.9, 3.0, 2.0 fold"},
      {"measurement": "Fold induction SA1659 (prsA)", "setting": "[1]; n=3", "result": "2.9 fold and 3.2, 4.5, 2.9 fold"},
      {"measurement": "Fold induction SA1700 (vraR)", "setting": "[1]; n=3", "result": "3.2, 5.0, 2.8 fold"},
      {"measurement": "Fold induction SA1701 (vraS)", "setting": "[1]; n=3", "result": "2.5 fold and 3.9, 5.3, 2.5 fold"},
      {"measurement": "Fold induction SA1702", "setting": "[1]; n=3", "result": "4.3, 5.7, 2.6 fold"},
      {"measurement": "Fold induction SA1703", "setting": "[1]; n=3", "result": "3.7, 4.2, 2.1 fold"},
      {"measurement": "Fold induction SA1706", "setting": "[1]; n=3", "result": "2.0, 2.0, 2.1 fold"},
      {"measurement": "Fold induction SA1710", "setting": "[1]; n=3", "result": "2.2, 2.4, 2.1 fold"},
      {"measurement": "Fold induction SA1820", "setting": "[1]; n=3", "result": "2.2 fold and 3.6, 3.0, 2.2 fold"},
      {"measurement": "Fold induction SA1836 (groEL)", "setting": "[1]; n=3", "result": "2.2 fold and 3.8, 4.3, 2.2 fold"},
      {"measurement": "Fold induction SA1837 (groES)", "setting": "[1]; n=3", "result": "3.2, 3.6, 2.4 fold"},
      {"measurement": "Fold induction SA1858 (ilvD)", "setting": "[1]; n=3", "result": "4.9, 2.5, 2.1 fold"},
      {"measurement": "Fold induction SA1860", "setting": "[1]; n=3", "result": "15.7, 4.3, 2.1 fold"},
      {"measurement": "Fold induction SA1863 (leuB)", "setting": "[1]; n=3", "result": "9.7, 4.2, 2.2 fold"},
      {"measurement": "Fold induction SA1971", "setting": "[1]; n=3", "result": "2.2, 2.5, 2.2 fold"},
      {"measurement": "Fold induction SA1990", "setting": "[1]; n=3", "result": "2.2 fold and 3.4, 2.6, 2.2 fold"},
      {"measurement": "Fold induction SA2113", "setting": "[1]; n=3", "result": "2.2 fold and 2.2, 3.7, 2.2 fold"},
      {"measurement": "Fold induction SA2301", "setting": "[1]; n=3", "result": "2.3, 2.2, 2.1 fold"},
      {"measurement": "Fold induction SA2343", "setting": "[1]; n=3", "result": "2.7 fold and 4.3, 4.3, 2.7 fold"},
      {"measurement": "Fold induction SA2481", "setting": "[1]; n=3", "result": "2.1, 3.1, 2.7 fold"},
      {"measurement": "Fold induction SA2493 (vraE)", "setting": "[1]; n=3", "result": "3.4, 11.8, 6.2 fold"},
      {"measurement": "Fold induction SAS016", "setting": "[1]; n=3", "result": "5.4 fold and 5.0, 7.4, 5.4 fold"}
    ]},
    {"substance": "FVQWFSKFLGRIL-NH2 [Temporin L-NH2]", "values": [
      {"measurement": "MIC", "setting": "[2]", "result": 6, "unit": "µg/mL"},
      {"measurement": "MIC", "setting": "[3]", "result": 3, "unit": "µg/mL"},
      {"measurement": "MIC", "setting": "[4]; Mueller-Hinton broth", "result": 6, "unit": "µg/mL"},
      {"measurement": "MIC", "setting": "[5]", "result": 3, "unit": "µg/mL"},
      {"measurement": "MIC", "setting": "[6]", "result": 3, "unit": "µg/mL"},
      {"measurement": "MIC", "setting": "[7]", "result": 6, "unit": "µg/mL"}
    ]},
    {"substance": "KNLRRIIRKIIHIIKKYG-NH2 [Ovispirin-1-NH2]", "values": [
      {"measurement": "MIC", "setting": "[2]", "result": 20, "unit": "µg/mL"},
      {"measurement": "MIC", "setting": "[3]", "result": 20, "unit": "µg/mL"},
      {"measurement": "MIC", "setting": "[4]; Mueller-Hinton broth", "result": 10, "unit": "µg/mL"},
      {"measurement": "MIC", "setting": "[5]", "result": 10, "unit": "µg/mL"},
      {"measurement": "MIC", "setting": "[6]", "result": 20, "unit": "µg/mL"},
      {"measurement": "MIC", "setting": "[7]", "result": 20, "unit": "µg/mL"}
    ]},
    {"substance": "KNLRRIIRKIIHIIKKYG-OH [Ovispirin-1]", "values": [
      {"measurement": "Fold induction SA0205", "setting": "[8]", "result": "5.1 (1.0) fold"},
      {"measurement": "Fold induction groEL", "setting": "[8]", "result": "2.5 (0.5) fold"},
      {"measurement": "Fold induction prsA", "setting": "[8]", "result": "7.2 (1.6) fold"},
      {"measurement": "Fold induction vraD", "setting": "[8]", "result": "3.7 (0.5) fold"},
      {"measurement": "MIC", "setting": "[2]", "result": 20, "unit": "µg/mL"},
      {"measurement": "MIC", "setting": "[3]", "result": 20, "unit": "µg/mL"},
      {"measurement": "Effect of the ΔvraSR mutation on sensitivity", "setting": "[4]", "result": "did not affect the sensitivity"},
      {"measurement": "MIC", "setting": "[4]; Mueller-Hinton broth", "result": 20, "unit": "µg/mL"},
      {"measurement": "MIC", "setting": "[5]", "result": 20, "unit": "µg/mL"},
      {"measurement": "MIC", "setting": "[6]", "result": 20, "unit": "µg/mL"},
      {"measurement": "MIC", "setting": "[7]", "result": 20, "unit": "µg/mL"}
    ]},
    {"substance": "LL-37: human cathelicidin (LLGDFFRKSKEKIGKEFKRIVQRIKDFLRNLVPRTES; Antibacterial peptide LL-37; UniProt P49913 134-170, looked up)", "values": [
      {"measurement": "Effect of the ΔvraSR mutation on sensitivity", "setting": "[4]", "result": "did not affect the sensitivity"}
    ]},
    {"substance": "Nisin: lantibiotic (ITSISLCTPGCKTGALMGCNMKTATCHCSIHVSK; also: lantibiotic, modified residues and thioether rings not given here; UniProt P13068 24-57, looked up)", "values": [
      {"measurement": "MIC", "setting": "[2]", "result": 6.25, "unit": "µg/mL"},
      {"measurement": "MIC", "setting": "[3]", "result": 6.25, "unit": "µg/mL"},
      {"measurement": "Effect of the ΔvraSR mutation on sensitivity", "setting": "[4]", "result": "did not affect the sensitivity"}
    ]},
    {"substance": "Teicoplanin", "values": [
      {"measurement": "Fold induction SA0205", "setting": "[8]", "result": "35.7 (6.9) fold"},
      {"measurement": "Fold induction groEL", "setting": "[8]", "result": "3.0 (0.3) fold"},
      {"measurement": "Fold induction prsA", "setting": "[8]", "result": "32.1 (4.1) fold"},
      {"measurement": "Fold induction vraD", "setting": "[8]", "result": "2.5 (0.3) fold"},
      {"measurement": "MIC", "setting": "[2]", "result": 0.5, "unit": "µg/mL"},
      {"measurement": "MIC", "setting": "[3]", "result": 0.25, "unit": "µg/mL"},
      {"measurement": "Difference in MIC (increased sensitivity), ΔvraSR mutant versus wild-type", "setting": "[4]; Mueller-Hinton broth", "result": 4, "unit": "fold"},
      {"measurement": "MIC", "setting": "[4]; Mueller-Hinton broth", "result": 0.125, "unit": "µg/mL"},
      {"measurement": "MIC", "setting": "[5]", "result": 0.06, "unit": "µg/mL"},
      {"measurement": "MIC", "setting": "[7]", "result": 0.5, "unit": "µg/mL"}
    ]},
    {"substance": "hBD3 (GIINTLQKYYCRVRGGRCAVLSCLPKEEQIGKCSTRGRKCCRRKK; UniProt P81534 23-67, looked up)", "values": [
      {"measurement": "Effect of the ΔvraSR mutation on sensitivity", "setting": "[4]", "result": "did not affect the sensitivity"}
    ]}
  ]
}
